Data reported in US6706663B2, “Herbicidal 3-heterocyclic substituted benzisothiazole and benzisoxazole compounds” (Wyeth, priority 2000, dated 2004).

Legend:
ZEAMX (Corn, Field) [1] = test: Preemergence herbicidal evaluation; format: in vivo, Zea mays, L.; settings: preemergence, rated 4-5 weeks after treatment
[2] = system: GLXMAW (Soybean, Williams); test: Postemergence herbicidal evaluation; format: in vivo, Glycine max, (L.) Merr. cv Williams; settings: postemergence
Procedure, shortened: (§1)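 Seedlings grown about two weeks in flats, sprayed, then kept under standard greenhouse care. Rated visually 4–5 weeks after treatment on a 0–9 scale (stand, vigour, malformation, size, chlorosis, overall appearance) relative to untreated control; repeat tests averaged.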

[3] = system: AMBEL (Ambrosia artemisifolia); test: Preemergence herbicidal evaluation; format: in vivo, L.; settings: preemergence, rated 4-5 weeks after treatment
Procedure, shortened: (§2)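 Scores (0–9) reflect visual comparison with control plants for stand, vigor, malformation, size and chlorosis. Seeds in potting soil received a post-planting spray of compound in aqueous acetone and grew in a greenhouse until assessment 4–5 weeks later.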

[4] = system: ABUTH (Abutilon theophrasti); test: Postemergence herbicidal evaluation; format: in vivo, Medic.; settings: postemergence
Procedure, shortened: as §1

ZEAMX (Corn, Field) [5] = test: Postemergence herbicidal evaluation; format: in vivo, Zea mays, L.; settings: postemergence
Procedure, shortened: as §1

[6] = system: MOOVA (Monochoria vaginalis); test: Flooded paddy, preemergence weed control; format: in vivo, Presl.; settings: rated 3-4 weeks after treatment, 0-9 rating scale
Procedure, shortened: (§3)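 Visual 0-9 rating versus control, scoring stand, vigor, malformation, size, chlorosis and overall appearance. Silt loam soil, propagules in top 0.5 cm; flood depth 1.5–3 cm held for the whole test; greenhouse.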

[7] = system: ECHORC (Echinochloa oryzoides); test: Flooded paddy, preemergence weed control; format: in vivo, Echinochloa oryzoides (Ard.) Fritsch.; settings: rated 3-4 weeks after treatment, 0-9 rating scale
Procedure, shortened: as §3

[8] = system: CHEAL (Chenopodium album); test: Postemergence herbicidal evaluation; format: in vivo, L.; settings: postemergence
Procedure, shortened: as §1

[9] = system: AMBEL (Ambrosia artemisifolia); test: Postemergence herbicidal evaluation; format: in vivo, L.; settings: postemergence
Procedure, shortened: as §1

[10] = system: CASOB (Cassia obtusifolia); test: Postemergence herbicidal evaluation; format: in vivo, L.; settings: postemergence
Procedure, shortened: as §1

GALAP (Galium aparine) [11] = test: Preemergence herbicidal evaluation; format: in vivo; settings: preemergence, rated 4-5 weeks after treatment
Procedure, shortened: as §2

[12] = system: SAGPY (Sagittaria pygmaea); test: Flooded paddy, preemergence weed control; format: in vivo, L.; settings: rated 3-4 weeks after treatment, 0-9 rating scale
Procedure, shortened: as §3

[13] = system: ABUTH (Abutilon theophrasti); test: Preemergence herbicidal evaluation; format: in vivo, Medic.; settings: preemergence, rated 4-5 weeks after treatment
[14] = system: ECHCG (Echinochloa crus-galli); test: Preemergence herbicidal evaluation; format: in vivo, (L.) Beau; settings: preemergence, rated 4-5 weeks after treatment
Procedure, shortened: as §2

[15] = system: ECHCG (Echinochloa crus-galli); test: Postemergence herbicidal evaluation; format: in vivo, (L.) Beau; settings: postemergence
Procedure, shortened: as §1

GLXMA (Soybean) = test: Preemergence herbicidal evaluation; format: in vivo, Glycine max, (L.) Merr.; settings: preemergence, rated 4-5 weeks after treatment
ORYSAT (Rice, Tebonnet) [16] = test: Flooded paddy, post-transplant rice tolerance; format: in vivo, Oryza sativa, (L.) Tebonnet; settings: in vivo
Procedure, shortened: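 Two ten-day-old seedlings were transplanted into silt loam, flooded and held at 1.5 to 3 cm water above the soil before herbicide treatment. Pots stayed in the greenhouse at that water level. Injury was scored visually on a 0-9 scale versus untreated control.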

[17] = system: IPOHE (Ipomoea hederacea); test: Preemergence herbicidal evaluation; format: in vivo, (L.) Jacq.; settings: preemergence, rated 4-5 weeks after treatment
[18] = system: TRZAWR (Wheat, Winter, cv Riband); test: Postemergence herbicidal evaluation; format: in vivo, Triticum aestivum; settings: postemergence
Procedure, shortened: as §1

GALAP (Galium aparine) [19] = test: Postemergence herbicidal evaluation; format: in vivo; settings: postemergence
Procedure, shortened: as §1

[20] = system: IPOHE (Ipomoea hederacea); test: Postemergence herbicidal evaluation; format: in vivo, (L.) Jacq.; settings: postemergence
Procedure, shortened: as §1

CYPIR (Cyperus iria) = test: Flooded paddy, preemergence weed control; format: in vivo; settings: rated 3-4 weeks after treatment, 0-9 rating scale
Procedure, shortened: as §3

ORYSAT (Rice, Tebonnet) [21] = test: Postemergence herbicidal evaluation; format: in vivo, Oryza sativa, (L.) Tebonnet; settings: postemergence
Procedure, shortened: as §1

5-[5-[3,6-dihydro-3-methyl-2,6-dioxo-4-(trifluoromethyl)-1(2H)-pyrimidinyl]-1,2-benzisothiazol-3-yl]-1,6-hydro-6-oxo-2,3-pyrazinedicarbonitrile [Compound 91]
Preemergence herbicidal rating ZEAMX (ZEAMX (Corn, Field) [1]; rate 0.0620 kg/ha): 0.0
Preemergence herbicidal rating ZEAMX (ZEAMX (Corn, Field) [1]; rate 0.1250 kg/ha): 0.0
Preemergence herbicidal rating ZEAMX (ZEAMX (Corn, Field) [1]; rate 0.2500 kg/ha): 0.0
GLXMAW herbicidal rating ([2]; rate 0.0320 kg/ha): 6.0
GLXMAW herbicidal rating ([2]; rate 0.0620 kg/ha): 6.0
GLXMAW herbicidal rating ([2]; rate 0.1250 kg/ha): 6.0
Preemergence herbicidal rating AMBEL ([3]; rate 0.0620 kg/ha): 0.0
Preemergence herbicidal rating AMBEL ([3]; rate 0.1250 kg/ha): 0.0
Preemergence herbicidal rating AMBEL ([3]; rate 0.2500 kg/ha): 0.0
ABUTH herbicidal rating ([4]; rate 0.0320 kg/ha): 5.0
ABUTH herbicidal rating ([4]; rate 0.0620 kg/ha): 7.0
ABUTH herbicidal rating ([4]; rate 0.1250 kg/ha): 9.0
ZEAMX herbicidal rating (ZEAMX (Corn, Field) [5]; rate 0.0320 kg/ha): 1.5
ZEAMX herbicidal rating (ZEAMX (Corn, Field) [5]; rate 0.0620 kg/ha): 2.5
ZEAMX herbicidal rating (ZEAMX (Corn, Field) [5]; rate 0.1250 kg/ha): 3.0
MOOVA herbicidal rating ([6]; rate 0.0320 kg/ha): 0.0
MOOVA herbicidal rating ([6]; rate 0.1250 kg/ha): 0.0
ECHORC herbicidal rating ([7]; rate 0.0320 kg/ha): 0.0
ECHORC herbicidal rating ([7]; rate 0.1250 kg/ha): 0.0
CHEAL herbicidal rating ([8]; rate 0.0320 kg/ha): 9.0
CHEAL herbicidal rating ([8]; rate 0.0620 kg/ha): 9.0
CHEAL herbicidal rating ([8]; rate 0.1250 kg/ha): 9.0
AMBEL herbicidal rating ([9]; rate 0.0320 kg/ha): 4.0
AMBEL herbicidal rating ([9]; rate 0.0620 kg/ha): 4.0
AMBEL herbicidal rating ([9]; rate 0.1250 kg/ha): 5.0
CASOB herbicidal rating ([10]; rate 0.0320 kg/ha): 0.0
CASOB herbicidal rating ([10]; rate 0.0620 kg/ha): 3.0
CASOB herbicidal rating ([10]; rate 0.1250 kg/ha): 4.0
Preemergence herbicidal rating GALAP (GALAP (Galium aparine) [11]; rate 0.0620 kg/ha): 0.0
Preemergence herbicidal rating GALAP (GALAP (Galium aparine) [11]; rate 0.1250 kg/ha): 0.0
Preemergence herbicidal rating GALAP (GALAP (Galium aparine) [11]; rate 0.2500 kg/ha): 0.0
SAGPY herbicidal rating ([12]; rate 0.0320 kg/ha): 0.0
SAGPY herbicidal rating ([12]; rate 0.1250 kg/ha): 0.0
Preemergence herbicidal rating ABUTH ([13]; rate 0.0620 kg/ha): 0.0
Preemergence herbicidal rating ABUTH ([13]; rate 0.1250 kg/ha): 0.0
Preemergence herbicidal rating ABUTH ([13]; rate 0.2500 kg/ha): 0.0
Preemergence herbicidal rating ECHCG ([14]; rate 0.0620 kg/ha): 0.0
Preemergence herbicidal rating ECHCG ([14]; rate 0.1250 kg/ha): 0.0
Preemergence herbicidal rating ECHCG ([14]; rate 0.2500 kg/ha): 0.0
ECHCG herbicidal rating ([15]; rate 0.0320 kg/ha): 0.0
ECHCG herbicidal rating ([15]; rate 0.0620 kg/ha): 0.0
ECHCG herbicidal rating ([15]; rate 0.1250 kg/ha): 0.0
Preemergence herbicidal rating GLXMA (GLXMA (Soybean); rate 0.0620 kg/ha): 0.0
Preemergence herbicidal rating GLXMA (GLXMA (Soybean); rate 0.1250 kg/ha): 0.0
Preemergence herbicidal rating GLXMA (GLXMA (Soybean); rate 0.2500 kg/ha): 0.0
ORYSAT herbicidal rating (transplanted rice tolerance) (ORYSAT (Rice, Tebonnet) [16]): 0.0
Preemergence herbicidal rating IPOHE ([17]; rate 0.0620 kg/ha): 0.0
Preemergence herbicidal rating IPOHE ([17]; rate 0.1250 kg/ha): 0.0
Preemergence herbicidal rating IPOHE ([17]; rate 0.2500 kg/ha): 0.0
TRZAWR herbicidal rating ([18]; rate 0.0320 kg/ha): 0.0
TRZAWR herbicidal rating ([18]; rate 0.0620 kg/ha): 0.0
TRZAWR herbicidal rating ([18]; rate 0.1250 kg/ha): 0.0
GALAP herbicidal rating (GALAP (Galium aparine) [19]; rate 0.0320 kg/ha): 3.0
GALAP herbicidal rating (GALAP (Galium aparine) [19]; rate 0.0620 kg/ha): 3.0
GALAP herbicidal rating (GALAP (Galium aparine) [19]; rate 0.1250 kg/ha): 3.0
IPOHE herbicidal rating ([20]; rate 0.0320 kg/ha): 7.0
IPOHE herbicidal rating ([20]; rate 0.0620 kg/ha): 7.0
IPOHE herbicidal rating ([20]; rate 0.1250 kg/ha): 8.0
CYPIR herbicidal rating (CYPIR (Cyperus iria); rate 0.0320 kg/ha): 0.0
CYPIR herbicidal rating (CYPIR (Cyperus iria); rate 0.1250 kg/ha): 0.0
ORYSAT herbicidal rating (ORYSAT (Rice, Tebonnet) [21]; rate 0.0320 kg/ha): 0.0
ORYSAT herbicidal rating (ORYSAT (Rice, Tebonnet) [21]; rate 0.0620 kg/ha): 0.5
ORYSAT herbicidal rating (ORYSAT (Rice, Tebonnet) [21]; rate 0.1250 kg/ha): 1.0
